Assay results from ChEMBL document CHEMBL1141872 (Bioorg Med Chem Lett, 2005).
pIC50: −log10 of the molar value.

Columns and labels:
[1] = molecular target: 3',5'-cyclic-AMP phosphodiesterase 4D (Homo sapiens, UniProt Q08499); assay: Inhibitory activity against PDE4D
[2] = molecular target: 3',5'-cyclic-AMP phosphodiesterase 4C (Homo sapiens, UniProt Q08493); assay: Inhibitory activity against PDE4C
[3] = molecular target: 3',5'-cyclic-AMP phosphodiesterase 4A (Homo sapiens, UniProt P27815); assay: Inhibitory activity against PDE4A
Cavia porcellus [4] = assay: Inhibition of ovalbumin-induced bronchoconstriction in guinea pig at 0.3 mg/kg, ip; assay type: functional; settings: route intraperitoneal
[5] = molecular target: 3',5'-cyclic-AMP phosphodiesterase 4B (Homo sapiens, UniProt Q07343); assay: Inhibitory activity against PDE4B
Phosphodiesterase 4 [6] = molecular target: T1, Phosphodiesterase 4 (Homo sapiens, UniProt P27815+Q08499+Q07343+Q08493); assay: Inhibition of LPS-induced TNFalpha production in human whole blood; assay type: functional, tissue-based
[7] = Emetic threshold as plasma concentration in ferrets after 1.0 mg/kg oral dose; assay type: ADME, organism-based, Mustela putorius furo; parameters: dose 1 mg/kg, route oral; settings: ferret, read-out: Emesis_Cmax
[8] = Emetic threshold as plasma concentration in squirrel monkeys after 0.5 mg/kg oral dose; assay type: ADME, organism-based; parameters: dose 0.5 mg/kg, route oral; settings: saimiri, read-out: Emesis_Cmax
Ovis aries [9] = assay: Inhibition of late-phase antigen induced bronchoconstriction in Ascaris sensitive sheep at 0.5 mg/kg/day, iv; assay type: functional
Cavia porcellus [10] = assay: Inhibition of ovalbumin-induced bronchoconstriction in guinea pig at 0.01 mg/kg, ip; assay type: functional; settings: route intraperitoneal
Phosphodiesterase 4 [11] = molecular target: T1, Phosphodiesterase 4; assay: Inhibition of LPS-induced TNFalpha production in squirrel monkey whole blood; assay type: functional, tissue-based, Saimiri sciureus; settings: target entry is the homologue from another species
Ovis aries [12] = assay: Inhibition of early-phase antigen induced bronchoconstriction in Ascaris sensitive sheep at 0.5 mg/kg/day, iv; assay type: functional
[13] = Emetic threshold as plasma concentration in squirrel monkeys after 10 mg/kg oral dose; assay type: ADME, organism-based; parameters: dose 10 mg/kg, route oral; settings: saimiri, read-out: Emesis_Cmax
[14] = Emetic threshold as plasma concentration in ferrets after 30 mg/kg oral dose; assay type: ADME, organism-based, Mustela putorius furo; parameters: dose 30 mg/kg, route oral; settings: ferret, read-out: Emesis_Cmax
Cavia porcellus [15] = assay: Inhibition of ovalbumin-induced bronchoconstriction in guinea pig at 1 mg/kg, ip; assay type: functional; settings: route intraperitoneal
Mustela putorius furo = assay: Emetic threshold as plasma concentration in ferrets after 10 mg/kg oral dose; assay type: ADME, organism-based; parameters: dose 10 mg/kg, route oral; settings: ferret, in vivo
[16] = Oral bioavailability in rat at 20 mg/kg, po; assay type: ADME, organism-based; settings: in vivo
[17] = Tmax in rat at 20 mg/kg, po; assay type: ADME, organism-based; parameters: dose 20 mg/kg, route oral; settings: in vivo
[18] = Cmax in rat at 20 mg/kg, po; assay type: ADME, organism-based; parameters: dose 20 mg/kg, route oral; settings: in vivo
Cavia porcellus [19] = assay: Inhibition of ovalbumin-induced bronchoconstriction in guinea pig at 0.1 mg/kg, ip; assay type: functional; settings: route intraperitoneal
[20] = Emetic threshold as plasma concentration in squirrel monkeys after 3 mg/kg oral dose; assay type: ADME, organism-based; parameters: dose 3 mg/kg, route oral; settings: saimiri, read-out: Emesis_Cmax
Cavia porcellus [21] = assay: Inhibition of ovalbumin-induced bronchoconstriction in guinea pig at 0.03 mg/kg, ip; assay type: functional; settings: route intraperitoneal

Sequence of 3',5'-cyclic-AMP phosphodiesterase 4D (Q08499 whole entry): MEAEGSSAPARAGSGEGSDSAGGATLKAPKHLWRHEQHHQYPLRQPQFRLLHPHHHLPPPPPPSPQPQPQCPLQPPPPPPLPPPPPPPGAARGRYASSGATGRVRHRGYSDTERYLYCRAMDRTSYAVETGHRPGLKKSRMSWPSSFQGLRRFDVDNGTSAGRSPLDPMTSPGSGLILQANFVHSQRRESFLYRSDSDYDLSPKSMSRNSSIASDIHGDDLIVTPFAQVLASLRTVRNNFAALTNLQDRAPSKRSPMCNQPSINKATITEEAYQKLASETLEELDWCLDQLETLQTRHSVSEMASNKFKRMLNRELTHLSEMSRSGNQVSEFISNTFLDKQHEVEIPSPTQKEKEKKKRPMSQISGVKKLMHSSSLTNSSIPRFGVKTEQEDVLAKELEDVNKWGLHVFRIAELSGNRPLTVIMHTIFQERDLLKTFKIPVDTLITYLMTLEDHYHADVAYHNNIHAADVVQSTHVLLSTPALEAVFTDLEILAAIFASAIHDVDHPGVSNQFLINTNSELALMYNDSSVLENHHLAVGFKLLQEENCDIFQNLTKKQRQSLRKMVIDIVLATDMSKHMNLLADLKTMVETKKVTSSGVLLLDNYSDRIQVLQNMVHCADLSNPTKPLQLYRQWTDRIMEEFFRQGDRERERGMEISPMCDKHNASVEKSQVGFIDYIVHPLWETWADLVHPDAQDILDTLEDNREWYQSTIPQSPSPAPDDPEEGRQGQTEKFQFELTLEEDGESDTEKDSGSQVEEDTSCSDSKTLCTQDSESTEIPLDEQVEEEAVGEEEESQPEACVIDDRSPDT
Sequence of 3',5'-cyclic-AMP phosphodiesterase 4C (Q08493 whole entry): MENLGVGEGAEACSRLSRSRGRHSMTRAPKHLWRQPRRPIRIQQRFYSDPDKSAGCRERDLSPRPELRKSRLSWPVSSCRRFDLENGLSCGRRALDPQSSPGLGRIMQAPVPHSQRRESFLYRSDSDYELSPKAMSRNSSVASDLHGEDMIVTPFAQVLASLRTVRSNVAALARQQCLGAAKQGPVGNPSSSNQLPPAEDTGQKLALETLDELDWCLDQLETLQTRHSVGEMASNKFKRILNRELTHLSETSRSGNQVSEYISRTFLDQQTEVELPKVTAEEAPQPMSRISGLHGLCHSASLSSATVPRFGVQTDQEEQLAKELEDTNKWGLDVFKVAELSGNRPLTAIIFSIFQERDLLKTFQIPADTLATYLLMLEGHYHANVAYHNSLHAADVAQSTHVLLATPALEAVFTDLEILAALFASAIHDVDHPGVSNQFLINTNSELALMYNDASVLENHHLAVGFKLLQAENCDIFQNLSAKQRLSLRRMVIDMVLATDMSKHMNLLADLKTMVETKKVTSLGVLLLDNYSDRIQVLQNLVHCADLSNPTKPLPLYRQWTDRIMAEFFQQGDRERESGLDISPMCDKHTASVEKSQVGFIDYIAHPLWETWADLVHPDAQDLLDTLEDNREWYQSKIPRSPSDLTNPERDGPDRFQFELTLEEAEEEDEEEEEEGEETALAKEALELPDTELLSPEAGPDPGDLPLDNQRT
Sequence of 3',5'-cyclic-AMP phosphodiesterase 4A (P27815 whole entry): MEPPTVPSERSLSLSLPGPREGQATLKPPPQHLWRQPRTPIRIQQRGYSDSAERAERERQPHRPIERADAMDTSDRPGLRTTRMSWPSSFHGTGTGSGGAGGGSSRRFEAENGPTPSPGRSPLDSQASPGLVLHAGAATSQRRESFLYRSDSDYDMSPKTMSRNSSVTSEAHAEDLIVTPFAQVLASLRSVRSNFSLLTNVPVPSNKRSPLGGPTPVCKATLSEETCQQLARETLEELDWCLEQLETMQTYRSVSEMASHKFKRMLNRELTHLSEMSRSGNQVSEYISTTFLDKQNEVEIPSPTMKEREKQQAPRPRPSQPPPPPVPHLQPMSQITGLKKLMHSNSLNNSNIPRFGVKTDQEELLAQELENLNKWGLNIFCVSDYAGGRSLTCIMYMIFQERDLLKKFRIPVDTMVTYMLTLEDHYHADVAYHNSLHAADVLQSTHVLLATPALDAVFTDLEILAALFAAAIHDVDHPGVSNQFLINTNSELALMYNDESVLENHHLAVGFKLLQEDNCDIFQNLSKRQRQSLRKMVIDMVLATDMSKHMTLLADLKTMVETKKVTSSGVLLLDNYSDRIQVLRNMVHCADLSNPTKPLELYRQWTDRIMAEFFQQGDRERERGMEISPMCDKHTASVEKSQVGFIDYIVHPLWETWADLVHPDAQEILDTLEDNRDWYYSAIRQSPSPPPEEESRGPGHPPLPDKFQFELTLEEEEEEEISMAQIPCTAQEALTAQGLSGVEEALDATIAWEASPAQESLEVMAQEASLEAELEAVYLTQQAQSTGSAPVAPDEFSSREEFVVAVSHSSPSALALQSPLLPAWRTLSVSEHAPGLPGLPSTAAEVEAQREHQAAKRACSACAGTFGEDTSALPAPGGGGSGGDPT
Sequence of 3',5'-cyclic-AMP phosphodiesterase 4B (Q07343 whole entry): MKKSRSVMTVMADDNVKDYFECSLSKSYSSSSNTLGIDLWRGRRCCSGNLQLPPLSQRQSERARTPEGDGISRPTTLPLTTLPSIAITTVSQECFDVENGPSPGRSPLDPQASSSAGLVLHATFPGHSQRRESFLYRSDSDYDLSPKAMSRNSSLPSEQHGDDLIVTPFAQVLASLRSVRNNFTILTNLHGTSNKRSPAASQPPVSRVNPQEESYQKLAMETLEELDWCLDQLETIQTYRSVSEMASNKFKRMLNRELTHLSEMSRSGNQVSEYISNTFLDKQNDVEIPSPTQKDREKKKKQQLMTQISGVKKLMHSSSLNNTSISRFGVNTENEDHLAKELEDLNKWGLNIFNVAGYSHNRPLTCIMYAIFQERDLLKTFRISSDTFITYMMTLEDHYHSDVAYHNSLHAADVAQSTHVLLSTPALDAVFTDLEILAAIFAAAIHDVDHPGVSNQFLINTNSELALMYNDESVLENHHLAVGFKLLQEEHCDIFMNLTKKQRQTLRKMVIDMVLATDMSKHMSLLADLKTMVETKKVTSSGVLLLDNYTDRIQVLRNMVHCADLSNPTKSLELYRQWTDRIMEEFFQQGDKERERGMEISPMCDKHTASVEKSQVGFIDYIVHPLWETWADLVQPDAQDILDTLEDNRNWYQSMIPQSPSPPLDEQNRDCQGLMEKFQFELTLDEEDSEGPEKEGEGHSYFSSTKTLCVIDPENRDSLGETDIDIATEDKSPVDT

Q: With `COc1cccc(-c2cc(Cc3ccncc3)cc3cccnc23)c1` as the compound, how does the pIC50 [1] read?
A: 8.60

Q: And the pIC50 [2]?
A: 8.48

Q: And the pIC50 [3]?
A: 8.82

Q: And the inhibition in vivo at 0.3 mg/kg (Cavia porcellus [4])?
A: 70%

Q: What about the pIC50 [5] of the same compound?
A: 8.64

Q: And the pIC50 (Phosphodiesterase 4 [6])?
A: 5.08

Q: What about the Cmax [7] of the same compound?
A: 200 nM

Q: With `CC(C)NC(=O)/C(=C\c1cccc(-c2cc(C(C)(C)C#N)cc3cccnc23)c1)c1ccc(S(C)(=O)=O)cc1` as the compound, how does the pIC50 [1] read?
A: 9.30

Q: What about the pIC50 [2] of the same compound?
A: 7.94

Q: And the pIC50 [3]?
A: 9.00

Q: And the pIC50 [5]?
A: 9.40

Q: And the pIC50 (Phosphodiesterase 4 [6])?
A: 6.68

Q: With `CC(C)c1cc(-c2cccc(/C=C(\c3ccc(S(C)(=O)=O)cc3)c3nccs3)c2)c2ncccc2c1` as the compound, how does the pIC50 [1] read?
A: 9.72

Q: And the pIC50 [2]?
A: 9.15

Q: And the pIC50 [3]?
A: 9.33

Q: And the pIC50 [5]?
A: 9.52

Q: And the pIC50 (Phosphodiesterase 4 [6])?
A: 6.92

Q: With `[O-][n+]1cccc(C[C@@H](c2ccc(OC(F)F)c(OC3CC3)c2)c2cnc(C(O)(C(F)(F)F)C(F)(F)F)s2)c1` as the compound, how does the pIC50 [1] read?
A: 9.40

Q: And the pIC50 [2]?
A: 9.00

Q: What about the pIC50 [3] of the same compound?
A: 9.40

Q: And the Cmax [8]?
A: 1600 nM

Q: And the inhibition in vivo at 0.5 mg/kg/day (Ovis aries [9])?
A: 92%

Q: What about the inhibition in vivo at 0.01 mg/kg (Cavia porcellus [10]) of the same compound?
A: 62%

Q: What about the IC50 (Phosphodiesterase 4 [11]) of the same compound?
A: 0.005 µM

Q: And the pIC50 [5]?
A: 9.40

Q: And the inhibition in vivo at 0.5 mg/kg/day (Ovis aries [12])?
A: 68%

Q: And the pIC50 (Phosphodiesterase 4 [6])?
A: 7.05

Q: With `COc1ccc([C@H](Cc2ccncc2)c2ccccc2)cc1OC1CCCC1` [CDP840] as the compound, how does the pIC50 [2] read?
A: 8.35

Q: What about the Cmax [13] of the same compound?
A: 4 µM

Q: And the Cmax [14]?
A: 2500 nM

Q: What about the pIC50 [3] of the same compound?
A: 8.68

Q: What about the inhibition in vivo at 0.5 mg/kg/day (Ovis aries [9]) of the same compound?
A: 88%

Q: And the IC50 (Phosphodiesterase 4 [11])?
A: 0.6 µM

Q: And the inhibition in vivo at 1 mg/kg (Cavia porcellus [15])?
A: 54%

Q: And the pIC50 [5]?
A: 8.85

Q: And the inhibition in vivo at 0.5 mg/kg/day (Ovis aries [12])?
A: 39%

Q: What about the pIC50 (Phosphodiesterase 4 [6]) of the same compound?
A: 4.85

Q: With `Cc1ccc(/C(=C/c2cccc(-c3cc(C(C)C)cc4cccnc34)c2)c2ccc(S(C)(=O)=O)cc2)nc1` as the compound, how does the pIC50 [1] read?
A: 9.70

Q: What about the pIC50 [2] of the same compound?
A: 9.40

Q: What about the pIC50 [3] of the same compound?
A: 9.70

Q: What about the pIC50 [5] of the same compound?
A: 9.70

Q: What about the pIC50 (Phosphodiesterase 4 [6]) of the same compound?
A: 6.92

Q: With `O=S(=O)(Nc1cccc(-c2cc(Cc3ccncc3)cc3cccnc23)c1)c1ccccc1` as the compound, how does the pIC50 [1] read?
A: 8.70

Q: What about the Emesis_Cmax (Mustela putorius furo) of the same compound?
A: > 2 µM

Q: What about the pIC50 [2] of the same compound?
A: 7.92

Q: And the pIC50 [3]?
A: 8.25

Q: And the inhibition in vivo at 1 mg/kg (Cavia porcellus [15])?
A: 46%

Q: What about the pIC50 [5] of the same compound?
A: 8.52

Q: What about the pIC50 (Phosphodiesterase 4 [6]) of the same compound?
A: 5.11

Q: Which results are given for `CC(C)c1cc(-c2cccc(/C=C(/c3ccc(C(C)(C)O)cc3)c3ccc(S(C)(=O)=O)cc3)c2)c2ncccc2c1`?
A: pIC50 [1]: 9.30; pIC50 [2]: 9.30; pIC50 [3]: 9.40; pIC50 [5]: 9.52; pIC50 (Phosphodiesterase 4 [6]): 6.21

Q: Which results are given for `CC(C)NC(=O)/C(=C/c1cccc(-c2cc(C(C)C)cc3cccnc23)c1)c1ccc(S(C)(=O)=O)cc1`?
A: pIC50 [1]: 9.22; pIC50 [2]: 8.54; pIC50 [3]: 9.52; pIC50 [5]: 9.52; pIC50 (Phosphodiesterase 4 [6]): 6.85

Q: With `Cc1noc(/C(=C/c2cccc(-c3cc(C(C)C)cc4cccnc34)c2)c2ccc(S(C)(=O)=O)cc2)n1` as the compound, how does the pIC50 [1] read?
A: 9.70

Q: What about the pIC50 [2] of the same compound?
A: 8.92

Q: What about the pIC50 [3] of the same compound?
A: 9.80

Q: What about the bioavailability [16] of the same compound?
A: 11%

Q: What about the Tmax [17] of the same compound?
A: 0.5 h

Q: What about the Cmax [18] of the same compound?
A: 0.5 µM

Q: And the pIC50 [5]?
A: 10.15

Q: What about the pIC50 (Phosphodiesterase 4 [6]) of the same compound?
A: 6.59

Q: With `CC(C)c1cc(-c2cccc(C(Cc3cc[n+]([O-])cc3)c3ccc(Cl)cc3)c2)c2ncccc2c1` (stereo not given) as the compound, how does the pIC50 [1] read?
A: 7.35

Q: What about the pIC50 [2] of the same compound?
A: 7.17

Q: What about the pIC50 [3] of the same compound?
A: 7.28

Q: And the pIC50 [5]?
A: 7.72

Q: What about the pIC50 (Phosphodiesterase 4 [6]) of the same compound?
A: 4.96

Q: With `CC(c1cc(-c2cccc(/C=C(\c3ccc(S(C)(=O)=O)cc3)c3ncc(C(C)(C)O)s3)c2)c2ncccc2c1)S(C)(=O)=O` (stereo not given) as the compound, how does the pIC50 [1] read?
A: 8.70

Q: What about the pIC50 [2] of the same compound?
A: 7.96

Q: What about the pIC50 [3] of the same compound?
A: 8.77

Q: What about the pIC50 [5] of the same compound?
A: 8.96

Q: And the pIC50 (Phosphodiesterase 4 [6])?
A: 6.68

Q: With `CC(C)c1cc(-c2cccc(C(Cc3ccncc3)c3ccc(Cl)cc3)c2)c2ncccc2c1` (stereo not given) as the compound, how does the pIC50 [1] read?
A: 7.42

Q: What about the pIC50 [2] of the same compound?
A: 7.66

Q: And the pIC50 [3]?
A: 7.93

Q: What about the pIC50 [5] of the same compound?
A: 8.19

Q: And the pIC50 (Phosphodiesterase 4 [6])?
A: 4.51

Q: With `CC(C)c1cc(-c2cccc(/C=C(/C(=O)O)c3ccc(S(C)(=O)=O)cc3)c2)c2ncccc2c1` as the compound, how does the pIC50 [1] read?
A: 9.30

Q: And the pIC50 [2]?
A: 8.42

Q: And the pIC50 [3]?
A: 9.52

Q: And the pIC50 [5]?
A: 9.52

Q: And the pIC50 (Phosphodiesterase 4 [6])?
A: 5.80

Q: What does the source list for `Cc1noc(/C(=C/c2cccc(-c3cc(C(C)(C)S(C)(=O)=O)cc4cccnc34)c2)c2ccc(S(C)(=O)=O)cc2)n1`?
A: Cmax [13]: 3.8 µM; inhibition in vivo at 0.5 mg/kg/day (Ovis aries [9]): 95%; bioavailability [16]: 100%; Tmax [17]: 6 h; Cmax [18]: 5.1 µM; inhibition in vivo at 0.5 mg/kg/day (Ovis aries [12]): 73%

Q: With `CC(C)NC(=O)/C(=C/c1cccc(-c2cc(C(C)(C)S(C)(=O)=O)cc3cccnc23)c1)c1ccc(S(C)(=O)=O)cc1` as the compound, how does the pIC50 [1] read?
A: 8.64

Q: And the pIC50 [2]?
A: 7.85

Q: And the inhibition in vivo at 0.1 mg/kg (Cavia porcellus [19])?
A: 59%

Q: And the pIC50 [3]?
A: 9.05

Q: And the Cmax [20]?
A: > 2500 nM

Q: And the pIC50 [5]?
A: 9.30

Q: What about the pIC50 (Phosphodiesterase 4 [6]) of the same compound?
A: 6.03

Q: With `CC(C)NC(=O)/C(=C/c1cccc(-c2cc(C(C)(C)C#N)cc3cccnc23)c1)c1ccc(S(C)(=O)=O)cc1` as the compound, how does the pIC50 [1] read?
A: 9.15

Q: And the inhibition in vivo at 0.03 mg/kg (Cavia porcellus [21])?
A: 75%

Q: What about the pIC50 [2] of the same compound?
A: 8.17

Q: What about the Cmax [13] of the same compound?
A: 1.9 µM

Q: What about the pIC50 [3] of the same compound?
A: 9.10

Q: And the bioavailability [16]?
A: 80%

Q: What about the Tmax [17] of the same compound?
A: 6 h

Q: What about the Cmax [18] of the same compound?
A: 4.1 µM

Q: And the IC50 (Phosphodiesterase 4 [11])?
A: 0.015 µM

Q: What about the pIC50 [5] of the same compound?
A: 9.52

Q: And the pIC50 (Phosphodiesterase 4 [6])?
A: 7.15

Q: Which results are given for `Cc1noc(/C(=C/c2cccc(-c3cc(C(C)C)cc4cccnc34)c2)c2ccccn2)n1`?
A: pIC50 [1]: 9.22; pIC50 [2]: 8.24; pIC50 [3]: 9.30; pIC50 [5]: 9.52; pIC50 (Phosphodiesterase 4 [6]): 5.92

Q: With `CC(C)c1cc(-c2cccc(CC(c3ccncc3)C(C)(C)O)c2)c2ncccc2c1` (stereo not given) as the compound, how does the pIC50 [1] read?
A: 8.36

Q: And the Emesis_Cmax (Mustela putorius furo)?
A: 2.9 µM

Q: What about the pIC50 [2] of the same compound?
A: 6.97

Q: What about the Cmax [13] of the same compound?
A: 11.9 µM

Q: And the pIC50 [3]?
A: 8.47

Q: What about the IC50 (Phosphodiesterase 4 [11]) of the same compound?
A: 0.45 µM

Q: And the inhibition in vivo at 1 mg/kg (Cavia porcellus [15])?
A: 47%

Q: What about the pIC50 [5] of the same compound?
A: 8.74

Q: What about the pIC50 (Phosphodiesterase 4 [6]) of the same compound?
A: 4.92
